Test results taken from patent US12290526B2 (priority 2018, dated 2025).

Legend:
[1] = system: gout induced by intra-articular uric acid at 20% in rats; assay: PIFIR model (pain-induced functional impairment, uric acid 20%), analgesic activity after topical administration; assay type: in vivo, Female Wistar rats; settings: for ability to walk and visible adverse effects: doses used (3.2-31.6 mg/Kg topical), observation period of 5 h
From the text: Female Wistar rats [Crl:(WI)BR] were employed with a weight of between 180 and 200 g. All the experimental procedures followed the recommendations of the committee for Research and Ethical Issues of the International Association for the Study of Pain and the Guidelines on Ethical Standards for Investigations of Experiment Pain in Animals. The number of animals for experimentation was kept to a minimum: 6 rats per experimental point. The animals were kept in a room with alternating dark/light cycles.
Twelve hours before the experiments, the fur that covers the rats' major muscle group that covers the femur (4 cm×4 cm) on the outer side of the hind right paw was very carefully clipped with some scissors, leaving the fur cut to a maximum length of 2 mm and taking care not to injure the rats' skin. Food was also removed at this moment, leaving them only free access to water. All the experiments were performed during the light phase, with the animals only being used once.
The analgesic effects are assessed employing the PIFIR model, in other words, the rats were anesthetized in a glass desiccator, saturated with ether vapor. The gout was induced by applying an intra-articular injection (i.a.) of 0.05 ml of uric acid suspended in mineral oil in the right hind member, exactly in the femur-tibia-kneecap joint. A 1 mL glass syringe with a 4-mm-long No. 22 needle is used for the intra-articular injection. Immediately afterwards, an electrode is attached to each hind paw in the middle of the plantar calluses. The rats were left to recover from the anesthesia and placed in a 30-cm-diameter rotary stainless-steel cylinder. The cylinder was turned at 4 r.p.m., forcing the rats to walk for 3 min every half hour, for a total of 5 hours. The variable measured was the contact time of each one of the rats' hind paws in the cylinder. When the electrode makes contact with the cylinder a circuit is closed and the ratio between the contact time of the injured paw in respect of the uninjured one was recorded on a computer.
The temporary courses of each treatment for 5 continuous hours were determined, employing an “n” of 6 rats per treatment. For the purpose of this study, inducing harm in the experimental animals was unavoidable. However, care was taken to avoid causing unnecessary suffering to the animals. At the end of the experimental determinations, the rats were immediately sacrificed.
From the aforementioned experimental model, the results obtained from the analgesic assessment of the combination are expressed as a Functionality Index percentage (FI %). This FI % is the ratio obtained by dividing the contact time of the limb with uric acid by the contact time of the limb against of the same rats, and multiplying the result by 100. The temporary course (TC) curves are built by plotting FI % or Dysfunction against time (h). The analgesic or antinociceptive effect was estimated as the recuperation of FI %. […] All the values plotted in the figures correspond to the mean±error standard for 6 animals.

[2] = cited from earlier work
[3] = cited from earlier work; remark: listed apart in the source
[4] = 31.6 mg/Kg topical administration

| SMILES | analgesic effects in temporary course (in words) [1, 4] | time point of the maximum effect [1, 4] [h] | analgesic effects in temporary courses (in words) ([1]; 3.16, 10.0 and 17.8 mg/Kg topical administration) | ability to walk and visible adverse effects [1] | solubility in water [2] | maximum effect (Emax), recovery of Functionality Index percentage (FI %) ([1]; 31.6 mg/Kg topical administration, rats, uric acid 20%, 5 h observation, mean ± standard error, n=6) [%] | analgesic effects in temporary courses (in words) ([1]; 3.16, 5.62, 10.0, 17.78 and 31.62 mg/Kg topical administration) | time over which the concentration in the top skin layers slowly declines ([3]; after the drug product is removed from the skin) | amount of aceclofenac absorbed, of the total dose applied ([3]; applied to the skin) [%] | amount retained on the top layers of skin, of the dose applied ([3]; applied to the skin) [%] |
| --- | --- | --- | --- | --- | --- | --- | --- | --- | --- | --- |
| C[C@H]1C[C@H]2[C@@H]3CCC4=CC(=O)C=C[C@]4(C)[C@@]3(F)[C@@H](O)C[C@]2(C)[C@@]1(O)C(=O)CO [betamethasone, (11ß,16ß)-9-fluoro-11,17,21-trihydroxy-16-methylpregna-1,4-diene-3,20-dione] | modest analgesic effects | 3.5 | does not generate analgesic effects | did not affect the ability of the rats to walk during the observation period or cause any visible adverse effect | insoluble in water | – | – | – | – | – |
| O=C(O)COC(=O)Cc1ccccc1Nc1c(Cl)cccc1Cl [aceclofenac, (2-{2-[(2,6-Dichlorophenyl)amino]phenyl}acetoxy) acetic acid] | – | – | – | did not affect the ability of the rats to walk during the observation period or cause any visible adverse effect | – | 42.0±6.9 | does show analgesic effects | more than 16 hours | 13 | 6 to 9 |
